Assay results: US7592023B2, “Transplant media” (Trophic Solutions LLC, priority 2000, dated 2009)

Key:
MDCK cells = experiment: cytoskeletal structure (actin and tubulin antibodies, confocal fluorescence microscopy) after cold storage, MDCK cells; assay type: cell-based; details: three days at cold temperatures
From the text: (§1) This Example describes the effect UW solution supplemented with BNP-1 on cytoskeletal structure of kidney cells. Briefly, either MDCK cells or primary kidney cell cultures were stored for three days at cold temperatures in either UW solution, UW solution supplemented with BNP-1, or DMEM. The cells were then labeled with actin and tubulin antibodies and analyzed by confocal fluorescence microscopy. […] In these primary cells, the actin and tubulin filaments maintained a coarse clumpy pattern with considerable cortical condensation near the plasma membrane and only a limited amount of fine fibrillar structure that would be considered more normal.

[1] = test system: primary kidney cell cultures; experiment: cytoskeletal structure (actin and tubulin antibodies, confocal fluorescence microscopy) after cold storage, primary kidney cell cultures; assay type: cell-based; details: three days at cold temperatures
From the text: as §1

[2] = test system: bacteria, fungi, and enveloped viruses; details: cited from earlier work
[3] = test system: panel of organisms in stationary growth phase; details: cited from earlier work

## BNP-1: bovine defensin peptide, SEQ ID NO: 37, rlcrivvirvcr; synthesized by Multiple Peptide Systems (RLCRIVVIRVCR; listed as Bos taurus)
MDCK cells
  actin and tubulin after storage: better maintenance of actin and tubulin
[1]
  actin and tubulin after storage: the tubulin and actin were better stained and more persistent

## GPNP: guinea pig defensin, rrcicttrtcrfpyrrlgtcifqnrvytfcc (RRCICTTRTCRFPYRRLGTCIFQNRVYTFCC; Guinea pig cytomegalovirus)
[2]
  spectrum of antimicrobial activity: broad spectrum antimicrobial properties verified

## HNP-1: defensin isolated from human PMN's, acycripaciagerrygtciyqgrlwafcc
[3]
  antimicrobial properties, rank among defensins tested: most potent antimicrobial properties

## rabbit NP-1: rabbit neutrophil defensin, vvcacrralclprerragfcrirgrihplccrr (VVCACRRALCLPRERRAGFCRIRGRIHPLCCRR; listed as Oryctolagus cuniculus)
[3]
  antimicrobial properties, rank among defensins tested: most potent antimicrobial properties
